Results from ChEMBL document CHEMBL1201862, “PubChem BioAssay data set” (2004).
Active and inactive are the calls of the source.

Columns and labels:
[1] = target: Sphingosine 1-phosphate receptor 2 (Homo sapiens, UniProt O95136); assay: Dose Response Cell Based Assay for Agonists of the S1P2 Receptor. [Related pubchem assays: 729, 736, 843 ]; assay type: functional
[2] = target: Ubiquitin carboxyl-terminal hydrolase BAP1 (Homo sapiens, UniProt Q92560); assay: inhibition of BAP1 ubiquitin hydrolase activity – biochemical, dose response (AID 714); assay type: functional
Ubiquitin carboxyl-terminal hydrolase BAP1, sequence (Q92560 whole entry): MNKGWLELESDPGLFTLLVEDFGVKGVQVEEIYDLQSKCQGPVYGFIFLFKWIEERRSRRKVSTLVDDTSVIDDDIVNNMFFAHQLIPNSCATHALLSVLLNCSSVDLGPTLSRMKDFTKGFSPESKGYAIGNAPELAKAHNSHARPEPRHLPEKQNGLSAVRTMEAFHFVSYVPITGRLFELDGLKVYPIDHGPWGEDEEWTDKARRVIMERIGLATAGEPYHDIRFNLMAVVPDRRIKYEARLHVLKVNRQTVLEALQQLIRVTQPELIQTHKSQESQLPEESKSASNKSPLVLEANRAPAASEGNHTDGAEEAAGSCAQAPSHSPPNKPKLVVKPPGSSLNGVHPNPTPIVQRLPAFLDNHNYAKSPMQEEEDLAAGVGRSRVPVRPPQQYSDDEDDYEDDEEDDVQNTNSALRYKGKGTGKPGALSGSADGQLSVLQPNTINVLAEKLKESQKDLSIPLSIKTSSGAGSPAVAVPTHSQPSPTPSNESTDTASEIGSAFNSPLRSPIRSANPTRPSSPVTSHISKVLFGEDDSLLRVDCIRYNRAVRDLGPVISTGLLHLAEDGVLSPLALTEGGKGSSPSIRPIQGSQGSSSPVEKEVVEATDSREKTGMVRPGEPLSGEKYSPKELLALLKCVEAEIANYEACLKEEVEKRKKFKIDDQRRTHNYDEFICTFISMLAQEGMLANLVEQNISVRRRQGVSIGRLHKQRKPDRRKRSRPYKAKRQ

[3] = target: Glutathione-S-transferase (Schistosoma japonicum, UniProt Q26513); assay: GST-antibody interaction or FRET quenching – biochemical, TR-FRET, artefact control for Vif-APOBEC3G degradation inhibitor project, dose response (AID 1117362); assay type: functional
Bcl-2-like protein 10 = target: T1, Bcl-2-like protein 10 (Homo sapiens, UniProt Q9HD36); assay: Bcl-B/TR3 peptide binding disruption – biochemical, fluorescence polarization, FITC-TR3 peptide, selectivity assay for Bfl-1 inhibitor project, primary screen (AID 748);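 also: fluorescence polarization from a fluorescein-labelled TR3 peptide binding purified Bcl-B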
T1 sequence (Q9HD36 whole entry): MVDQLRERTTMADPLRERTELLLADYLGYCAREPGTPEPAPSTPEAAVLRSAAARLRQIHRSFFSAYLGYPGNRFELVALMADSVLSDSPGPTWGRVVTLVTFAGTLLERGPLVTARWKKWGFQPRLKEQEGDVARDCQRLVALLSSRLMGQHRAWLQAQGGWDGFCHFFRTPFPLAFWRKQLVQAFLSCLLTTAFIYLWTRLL

[4] = viability loss in Vero cells – cytotoxicity control for Vif-APOBEC3G degradation inhibitor project, dose response (AID 1117358); assay type: functional; conditions: Vero
[5] = HIV-1 Vif–A3G interaction blockers – biochemical, TR-FRET, GST-Vif 1-94, biotin-A3G peptide, dose response retest, primary screen (AID 1117319); assay type: functional;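 also: TR-FRET signal of purified GST-Vif binding a biotinylated A3G peptide; inhibitors lower the FRET signal by blocking Vif and A3G binding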
Caspase-7 = Caspase-7 (Homo sapiens, UniProt P55210); assay: caspase-7 enzyme inhibition, selectivity check – biochemical, DEVD-R110 fluorescence, cherry-pick, selectivity assay for caspase-6 inhibitor project, dose response (AID 743295); assay type: functional
Caspase-7, sequence (P55210 24-198 limits assumed): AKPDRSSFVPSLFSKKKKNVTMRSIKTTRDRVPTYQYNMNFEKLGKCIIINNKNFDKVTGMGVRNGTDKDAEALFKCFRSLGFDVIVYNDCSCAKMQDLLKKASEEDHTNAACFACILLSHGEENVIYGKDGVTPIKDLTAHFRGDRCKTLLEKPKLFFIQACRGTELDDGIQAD
Caspase-7, sequence (P55210 207-303 limits assumed): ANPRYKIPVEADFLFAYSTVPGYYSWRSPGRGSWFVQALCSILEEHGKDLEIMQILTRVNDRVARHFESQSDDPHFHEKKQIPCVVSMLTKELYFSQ

[6] = target: T2, Sentrin-specific protease 7 (Homo sapiens, UniProt Q9BQF6); assay type: functional;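 also: Luminescence-based dose-response confirmation of ultra-high-throughput screening hits, measuring inhibition of SENP7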
T2 sequence (Q9BQF6 whole entry): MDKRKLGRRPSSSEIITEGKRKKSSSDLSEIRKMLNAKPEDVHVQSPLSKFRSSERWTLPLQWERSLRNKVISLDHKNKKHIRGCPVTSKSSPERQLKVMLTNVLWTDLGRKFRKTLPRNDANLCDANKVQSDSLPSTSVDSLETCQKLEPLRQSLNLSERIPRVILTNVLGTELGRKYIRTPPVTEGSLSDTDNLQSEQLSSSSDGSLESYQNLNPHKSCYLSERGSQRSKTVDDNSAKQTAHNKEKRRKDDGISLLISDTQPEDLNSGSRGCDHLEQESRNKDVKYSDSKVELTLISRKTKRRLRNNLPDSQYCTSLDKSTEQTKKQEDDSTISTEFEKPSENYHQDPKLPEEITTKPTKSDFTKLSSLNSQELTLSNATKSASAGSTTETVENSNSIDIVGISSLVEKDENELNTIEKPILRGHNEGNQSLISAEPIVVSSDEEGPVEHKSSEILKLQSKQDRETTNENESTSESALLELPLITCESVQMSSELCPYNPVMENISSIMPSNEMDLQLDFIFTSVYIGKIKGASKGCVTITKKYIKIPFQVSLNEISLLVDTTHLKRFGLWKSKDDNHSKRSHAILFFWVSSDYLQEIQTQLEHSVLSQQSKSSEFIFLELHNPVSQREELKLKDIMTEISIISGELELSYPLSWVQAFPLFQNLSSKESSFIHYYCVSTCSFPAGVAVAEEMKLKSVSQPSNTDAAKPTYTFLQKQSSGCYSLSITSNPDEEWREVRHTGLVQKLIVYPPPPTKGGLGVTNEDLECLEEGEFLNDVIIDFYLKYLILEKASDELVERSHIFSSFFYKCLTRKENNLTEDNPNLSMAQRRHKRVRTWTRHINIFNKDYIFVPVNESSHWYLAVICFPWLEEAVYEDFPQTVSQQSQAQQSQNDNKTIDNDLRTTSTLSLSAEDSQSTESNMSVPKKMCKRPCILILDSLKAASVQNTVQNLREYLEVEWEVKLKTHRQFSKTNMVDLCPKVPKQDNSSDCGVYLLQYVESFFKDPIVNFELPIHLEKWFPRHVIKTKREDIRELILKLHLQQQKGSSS

Caspase-6 = Caspase-6 (Homo sapiens, UniProt P55212); assay: inhibition of CASP6 peptide cleavage – biochemical, VEID-R110 fluorescence, cherry-pick, dose response (AID 720632)
Caspase-6, sequence (P55212 24-179 limits assumed): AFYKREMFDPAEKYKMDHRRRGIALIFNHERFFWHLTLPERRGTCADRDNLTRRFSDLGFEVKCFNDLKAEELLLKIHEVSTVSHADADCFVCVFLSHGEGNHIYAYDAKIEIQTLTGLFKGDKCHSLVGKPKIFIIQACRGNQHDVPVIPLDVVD
Caspase-6, sequence (P55212 194-293 limits assumed): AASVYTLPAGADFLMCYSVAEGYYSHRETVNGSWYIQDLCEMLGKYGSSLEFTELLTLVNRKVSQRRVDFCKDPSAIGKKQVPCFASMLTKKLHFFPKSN

[7] = target: T3, Sentrin-specific protease 6 (Homo sapiens, UniProt Q9GZR1); assay type: functional;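 also: Luminescence-based dose-response confirmatory assay of SENP6 inhibition, following up an ultra-high-throughput screen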
T3 sequence (Q9GZR1 whole entry): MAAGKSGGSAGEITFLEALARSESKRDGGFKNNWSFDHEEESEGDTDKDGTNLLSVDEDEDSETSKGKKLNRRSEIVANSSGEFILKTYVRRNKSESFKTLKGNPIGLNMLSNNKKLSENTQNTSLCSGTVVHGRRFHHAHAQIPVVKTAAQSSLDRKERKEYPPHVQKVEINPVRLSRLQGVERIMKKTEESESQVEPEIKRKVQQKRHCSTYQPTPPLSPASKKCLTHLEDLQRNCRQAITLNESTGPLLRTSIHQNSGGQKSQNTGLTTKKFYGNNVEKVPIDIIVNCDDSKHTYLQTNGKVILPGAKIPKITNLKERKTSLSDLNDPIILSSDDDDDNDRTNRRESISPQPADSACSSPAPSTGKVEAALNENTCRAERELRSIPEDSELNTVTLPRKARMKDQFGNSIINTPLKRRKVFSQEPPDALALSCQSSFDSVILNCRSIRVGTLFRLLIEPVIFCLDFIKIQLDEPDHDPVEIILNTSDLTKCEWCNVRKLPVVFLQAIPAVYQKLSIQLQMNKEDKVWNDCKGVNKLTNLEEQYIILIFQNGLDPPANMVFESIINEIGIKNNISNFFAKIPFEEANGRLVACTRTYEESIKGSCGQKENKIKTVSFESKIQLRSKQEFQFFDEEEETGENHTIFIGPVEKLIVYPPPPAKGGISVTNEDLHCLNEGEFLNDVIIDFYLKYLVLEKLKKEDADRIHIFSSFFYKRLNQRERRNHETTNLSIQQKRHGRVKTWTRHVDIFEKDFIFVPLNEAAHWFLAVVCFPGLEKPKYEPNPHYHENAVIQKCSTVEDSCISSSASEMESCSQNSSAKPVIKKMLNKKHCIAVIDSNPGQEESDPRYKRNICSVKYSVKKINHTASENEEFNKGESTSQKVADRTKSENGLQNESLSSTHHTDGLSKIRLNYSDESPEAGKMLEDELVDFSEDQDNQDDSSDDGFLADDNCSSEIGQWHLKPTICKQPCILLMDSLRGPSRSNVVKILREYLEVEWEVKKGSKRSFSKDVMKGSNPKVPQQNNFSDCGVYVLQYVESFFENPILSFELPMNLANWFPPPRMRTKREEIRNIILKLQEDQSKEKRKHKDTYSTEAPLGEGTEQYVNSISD

[8] = target: T4, Mitochondrial peptide methionine sulfoxide reductase (Bos taurus, UniProt P54149); assay: Absorbance-based biochemical high throughput dose response assay for activators of Methionine sulfoxide reductase A (MsrA).; assay type: functional
T4 sequence (P54149 whole entry): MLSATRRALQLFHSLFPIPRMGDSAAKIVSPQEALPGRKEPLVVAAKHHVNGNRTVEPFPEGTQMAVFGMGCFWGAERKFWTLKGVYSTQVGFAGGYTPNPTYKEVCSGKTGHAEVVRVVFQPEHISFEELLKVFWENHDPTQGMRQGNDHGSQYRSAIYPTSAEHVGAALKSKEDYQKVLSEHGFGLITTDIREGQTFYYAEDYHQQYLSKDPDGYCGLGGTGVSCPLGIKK

Caspase-8 = Caspase-8 (Homo sapiens, UniProt Q14790); assay: inhibitors of purified CASP8 protease – biochemical, Z-IETD-R110 fluorescence, cherry-picked samples, selectivity assay for caspase-6 inhibitor project, dose response (AID 743294)
[9] = target: T5, Sentrin-specific protease 8 (Homo sapiens, UniProt Q96LD8); assay type: functional;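 also: luminescence read-out of SENP8 inhibition, dose-response confirmation following an ultra-high-throughput screen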
T5 sequence (Q96LD8 whole entry): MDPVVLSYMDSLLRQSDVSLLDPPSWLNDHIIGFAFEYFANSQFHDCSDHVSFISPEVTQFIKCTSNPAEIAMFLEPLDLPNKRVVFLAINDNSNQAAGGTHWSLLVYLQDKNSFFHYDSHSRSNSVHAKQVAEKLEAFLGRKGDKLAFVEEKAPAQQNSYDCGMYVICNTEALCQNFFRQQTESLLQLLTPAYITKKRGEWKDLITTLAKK

Caspase-3 = target: T6, Caspase-3 (Homo sapiens, UniProt P42574); assay type: functional;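 also: Dose-response selectivity test against caspase-3 for candidate inhibitors of sentrin-specific proteases (SENPs)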
T6 sequence (P42574 whole entry): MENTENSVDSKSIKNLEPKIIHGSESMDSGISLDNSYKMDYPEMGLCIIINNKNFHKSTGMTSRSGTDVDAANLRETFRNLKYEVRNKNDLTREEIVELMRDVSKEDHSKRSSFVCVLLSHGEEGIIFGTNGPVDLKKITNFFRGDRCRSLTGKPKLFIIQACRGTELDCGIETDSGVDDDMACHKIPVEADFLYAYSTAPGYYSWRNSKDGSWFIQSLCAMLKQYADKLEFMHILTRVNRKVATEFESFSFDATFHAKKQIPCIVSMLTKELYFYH

[10] = YAP1 overexpression rescue of CTGF inhibition – DLD1 cells, RT-qPCR, cherry-pick, mechanism study for YAP1 pathway inhibitor project, dose response (AID 1053127); assay type: functional, cell-based; conditions: DLD-1
[11] = target: G-protein coupled receptor 183 (Homo sapiens, UniProt P32249); assay: SAR confirmation of small molecule antagonists of the EBI2 receptor via a luminescent beta-arrestin assa.; assay type: functional
G-protein coupled receptor 183, sequence (P32249 whole entry): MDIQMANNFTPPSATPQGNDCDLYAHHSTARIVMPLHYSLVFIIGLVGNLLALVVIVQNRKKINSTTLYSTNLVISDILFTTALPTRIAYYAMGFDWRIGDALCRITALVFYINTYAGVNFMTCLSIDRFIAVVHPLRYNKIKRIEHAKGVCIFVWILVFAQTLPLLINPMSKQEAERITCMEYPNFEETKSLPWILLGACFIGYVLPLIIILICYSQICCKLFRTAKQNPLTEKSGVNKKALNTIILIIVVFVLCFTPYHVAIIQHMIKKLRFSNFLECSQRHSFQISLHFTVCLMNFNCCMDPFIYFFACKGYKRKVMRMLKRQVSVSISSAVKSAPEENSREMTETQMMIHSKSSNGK

Phospholipase D1 = Phospholipase D1 (Homo sapiens, UniProt Q13393); assay: PLD1 Cellular Concentration Response Study.; assay type: functional
Phospholipase D1, sequence (Q13393 whole entry): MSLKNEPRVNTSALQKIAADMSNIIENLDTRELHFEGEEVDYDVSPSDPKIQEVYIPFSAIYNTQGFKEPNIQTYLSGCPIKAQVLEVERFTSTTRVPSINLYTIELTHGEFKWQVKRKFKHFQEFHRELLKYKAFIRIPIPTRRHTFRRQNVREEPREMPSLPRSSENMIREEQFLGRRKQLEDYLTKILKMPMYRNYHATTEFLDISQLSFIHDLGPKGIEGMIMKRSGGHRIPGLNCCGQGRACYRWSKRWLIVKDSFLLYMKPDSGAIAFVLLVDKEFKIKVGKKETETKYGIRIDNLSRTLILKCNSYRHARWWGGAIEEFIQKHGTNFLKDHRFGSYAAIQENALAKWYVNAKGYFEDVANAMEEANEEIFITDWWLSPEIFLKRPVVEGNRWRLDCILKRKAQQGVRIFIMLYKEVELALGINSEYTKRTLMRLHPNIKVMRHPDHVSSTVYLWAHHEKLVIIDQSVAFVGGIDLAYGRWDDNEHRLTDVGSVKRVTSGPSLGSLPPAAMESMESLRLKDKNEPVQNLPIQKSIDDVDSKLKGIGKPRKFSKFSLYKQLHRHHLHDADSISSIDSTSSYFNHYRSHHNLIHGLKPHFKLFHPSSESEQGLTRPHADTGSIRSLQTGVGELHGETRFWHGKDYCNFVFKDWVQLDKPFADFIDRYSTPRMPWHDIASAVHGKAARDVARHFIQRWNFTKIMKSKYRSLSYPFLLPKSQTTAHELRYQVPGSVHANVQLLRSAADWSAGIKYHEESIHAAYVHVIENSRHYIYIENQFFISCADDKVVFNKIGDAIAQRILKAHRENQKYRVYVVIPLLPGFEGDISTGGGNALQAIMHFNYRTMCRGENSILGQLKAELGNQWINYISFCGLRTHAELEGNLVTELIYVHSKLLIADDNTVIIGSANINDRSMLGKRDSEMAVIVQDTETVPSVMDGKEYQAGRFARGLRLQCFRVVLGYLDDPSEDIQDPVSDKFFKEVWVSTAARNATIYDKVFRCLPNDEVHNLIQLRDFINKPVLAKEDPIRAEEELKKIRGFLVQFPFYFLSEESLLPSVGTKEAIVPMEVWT

Phospholipase D2 = Phospholipase D2 (Homo sapiens, UniProt O14939); assay: PLD2 Cellular Concentration Response Study.; assay type: functional
Phospholipase D2, sequence (O14939 whole entry): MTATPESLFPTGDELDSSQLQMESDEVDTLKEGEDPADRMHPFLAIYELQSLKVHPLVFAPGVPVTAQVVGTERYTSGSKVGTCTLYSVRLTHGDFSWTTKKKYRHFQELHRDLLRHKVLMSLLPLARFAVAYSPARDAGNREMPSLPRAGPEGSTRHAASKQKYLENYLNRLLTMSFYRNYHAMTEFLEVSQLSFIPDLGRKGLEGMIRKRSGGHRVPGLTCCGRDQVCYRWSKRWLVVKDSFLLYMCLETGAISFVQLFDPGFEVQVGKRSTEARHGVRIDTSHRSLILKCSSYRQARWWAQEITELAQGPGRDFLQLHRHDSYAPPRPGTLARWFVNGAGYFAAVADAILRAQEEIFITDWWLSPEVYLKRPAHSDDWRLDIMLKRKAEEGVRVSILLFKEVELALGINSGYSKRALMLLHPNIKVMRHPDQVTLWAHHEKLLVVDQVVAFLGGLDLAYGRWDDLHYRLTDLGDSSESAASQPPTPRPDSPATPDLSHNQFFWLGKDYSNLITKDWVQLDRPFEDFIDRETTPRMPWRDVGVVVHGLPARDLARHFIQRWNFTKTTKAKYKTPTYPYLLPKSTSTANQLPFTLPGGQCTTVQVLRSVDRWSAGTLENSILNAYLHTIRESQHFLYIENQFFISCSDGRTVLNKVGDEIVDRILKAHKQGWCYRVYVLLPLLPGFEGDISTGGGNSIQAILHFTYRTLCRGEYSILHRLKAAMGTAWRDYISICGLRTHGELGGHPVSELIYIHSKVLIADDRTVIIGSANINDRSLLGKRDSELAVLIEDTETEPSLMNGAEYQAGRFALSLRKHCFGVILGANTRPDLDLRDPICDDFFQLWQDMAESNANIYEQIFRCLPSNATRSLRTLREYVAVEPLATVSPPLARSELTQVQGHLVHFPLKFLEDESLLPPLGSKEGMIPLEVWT

[12] = P. falciparum Dd2 growth inhibitors, dose response, SYBR Green, cherry-picked samples (AID 1159567); assay type: functional, cell-based
[13] = toxicity to human hepatoma HepG2 cells – cell-based, cherry-picked samples, cytotoxicity control, dose response (AID 1159577); assay type: functional
[14] = toxicity to human HepG2 hepatoma cells – cell-based, plate reader, dry powder samples, cytotoxicity control, dose response (AID 1159569); assay type: functional;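 also: inhibitor potency with signal falling toward the positive control level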
[15] = growth inhibition of PfATP4-mutant resistant parasites – NITD609-resistant line, SYBR Green, dry powder, dose response (AID 1159571); assay type: functional, cell-based;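 also: parasites synchronized at ring stage by sorbitol before testing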
[16] = Dd2 malaria parasite growth inhibition potency – SYBR Green, dry powder samples, dose response (AID 1159566); assay type: functional, cell-based;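 also: potency for growth inhibition with lower SYBR green DNA signal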
[17] = growth inhibition of yeast DHODH-expressing 3D7 parasites – SYBR Green, dry powder samples, dose response (AID 1159570); assay type: functional, cell-based;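 also: parasite growth measured after 72 hours of compound exposure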
[18] = target: Metabotropic glutamate receptor 7 (Homo sapiens, UniProt Q14831); assay: potentiation of glutamate EC20 at mGlu7 – cell-based, calcium mobilization, Galpha15, dose response (AID 743384); assay type: functional
Metabotropic glutamate receptor 7, sequence (Q14831 whole entry): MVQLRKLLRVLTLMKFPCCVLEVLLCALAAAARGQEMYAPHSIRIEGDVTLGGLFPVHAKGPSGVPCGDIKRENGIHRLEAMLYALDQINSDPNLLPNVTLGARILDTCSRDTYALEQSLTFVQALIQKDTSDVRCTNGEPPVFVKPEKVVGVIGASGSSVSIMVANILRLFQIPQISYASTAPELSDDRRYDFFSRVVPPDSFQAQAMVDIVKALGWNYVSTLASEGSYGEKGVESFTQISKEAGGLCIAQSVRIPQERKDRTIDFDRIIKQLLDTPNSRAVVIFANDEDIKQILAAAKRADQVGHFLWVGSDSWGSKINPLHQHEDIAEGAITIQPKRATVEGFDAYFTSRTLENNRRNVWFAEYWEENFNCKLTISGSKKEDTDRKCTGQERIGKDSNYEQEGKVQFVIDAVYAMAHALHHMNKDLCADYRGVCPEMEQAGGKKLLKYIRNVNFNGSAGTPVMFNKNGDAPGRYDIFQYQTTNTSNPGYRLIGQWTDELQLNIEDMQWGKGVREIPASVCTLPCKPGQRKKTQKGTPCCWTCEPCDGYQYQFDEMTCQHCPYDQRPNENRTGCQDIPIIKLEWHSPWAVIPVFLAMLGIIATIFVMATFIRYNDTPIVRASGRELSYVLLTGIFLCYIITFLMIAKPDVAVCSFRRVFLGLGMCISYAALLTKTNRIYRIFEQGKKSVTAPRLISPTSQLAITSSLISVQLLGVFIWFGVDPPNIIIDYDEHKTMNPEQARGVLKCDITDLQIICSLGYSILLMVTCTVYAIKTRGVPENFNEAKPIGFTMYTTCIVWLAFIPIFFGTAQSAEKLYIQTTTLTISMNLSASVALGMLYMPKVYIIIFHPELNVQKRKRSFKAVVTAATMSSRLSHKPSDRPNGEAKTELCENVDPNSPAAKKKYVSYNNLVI

[19] = viability loss in HEK293T cells – cell-based, ATP luminescence, dry powder, set 3, cytotoxicity control, dose response (AID 743131); assay type: functional; conditions: HEK293
[20] = viability loss in HepG2 hepatoma cells – cell-based, ATP luminescence, dry powder, set 2, cytotoxicity control, dose response (AID 743129); assay type: functional
[21] = viability loss in A549 lung cancer cells – cell-based, CellTiter-Glo luminescence, dry powder, set 5, cytotoxicity control, dose response (AID 743158); assay type: functional
cells = assay type: functional, cell-based; conditions: INS-1E
[22] = IC50 of insulin release inhibition, rat insulinoma INS-1E line, 5 mM glucose, cell-based (AID 1117331); assay type: functional

Sphingosine 1-phosphate receptor 2, sequence (O95136 whole entry): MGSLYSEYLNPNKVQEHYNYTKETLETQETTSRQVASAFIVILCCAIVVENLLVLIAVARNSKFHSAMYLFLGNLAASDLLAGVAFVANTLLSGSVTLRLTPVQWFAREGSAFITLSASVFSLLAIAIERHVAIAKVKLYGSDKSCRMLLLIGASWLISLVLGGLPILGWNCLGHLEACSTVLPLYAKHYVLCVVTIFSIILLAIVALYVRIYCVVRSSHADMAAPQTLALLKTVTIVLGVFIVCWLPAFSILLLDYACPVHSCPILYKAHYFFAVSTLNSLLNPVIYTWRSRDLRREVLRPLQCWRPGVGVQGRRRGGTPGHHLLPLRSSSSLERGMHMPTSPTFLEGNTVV

With `Oc1nc(-c2cccs2)nc2ccccc12` the EC50 [1] was > 50 µM (not active).
For `Cc1sc(NC(=O)CSc2nnc(C)c(=O)[nH]2)c(C#N)c1C`, the IC50 [2] was > 50 µM (not active).
In the case of `Cc1ccc(OCCSc2nnc(-c3ccncc3)n2C)cc1`, the IC50 [3] is reported as > 100 µM (active) and the IC50 (Bcl-2-like protein 10) is reported as > 100 µM (inactive).
In the case of `COc1ccccc1Cn1c(-c2ccccc2OC)nc2ccccc21`, the CC50 [4] is reported as > 40 µM (active) and the IC50 [5] is reported as > 100 µM (active).
In the case of `O=C1CN(C(=O)COC(=O)c2ccc([N+](=O)[O-])s2)c2ccccc2N1`, the AC50 (Caspase-7) is reported as 20 µM (active), the IC50 [6] is reported as 92 µM (active) and the AC50 (Caspase-6) is reported as 3.32 µM (active). For the same compound, the IC50 [7] was 52.9 µM (active), the EC50 [8] was 17.4 µM (inactive) and the AC50 (Caspase-8) was 19.6 µM (active). The IC50 [9] was 47.9 µM (active) and the IC50 (Caspase-3) was 96.6 µM (active).
In the case of `COc1cccc(-c2ccc([C@@H]3[C@@H](CO)N4CCCCN(C(=O)Cc5ccncc5)C[C@@H]34)cc2)c1`, the AC50 [10] is reported as > 26 µM (inactive).
For `O=C(/C=C/c1ccc(F)cc1)N1CCN(S(=O)(=O)c2ccccc2F)CC1`, the IC50 [11] was 0.0194 µM (active).
In the case of `O=C(NCCN1CCC2(CC1)C(=O)NCN2Cc1ccc(Cl)cc1)c1ccc2ccccc2c1`, the IC50 (Phospholipase D1) is reported as 6.78 µM (active) and the IC50 (Phospholipase D2) is reported as 1.54 µM (active).
With `O=C(C1CCC1)N1C[C@@H]2N[C@H](C1)[C@@H]2c1ccc(/C=C/c2ccccc2)cc1` the AC50 [12] was 3.76 µM (active) and the AC50 [13] was 11.5 µM (active).
For `O=C(Nc1ccc(C(F)(F)F)cc1)N1C[C@@H]2N[C@H](C1)[C@@H]2c1ccc(-c2cccnc2)cc1`, the AC50 [12] was 1.12 µM (active), the AC50 [14] was 18.6 µM (active) and the AC50 [15] was 0.022 µM (active). For the same compound, the AC50 [16] was 0.0354 µM (active) and the AC50 [17] was 0.0146 µM (active).
For `COC(=O)c1ccc(-n2c(C)cc(C(=O)CSc3ccc(N(C)C(C)=O)cc3)c2C)cc1`, the EC50 [18] was 10 µM (active).
With `CCOC(=O)c1c(-c2ccc(C(C)(C)C)cc2)csc1NC(=O)CN1CCN(CC)CC1` the AC50 [19] was 9.03 µM (active), the AC50 [20] was 15.3 µM (active) and the AC50 [21] was 11.9 µM (active).
For `Cc1cc2c(OCC(CNC(C)(C)C)OC(=O)c3ccccc3)cccc2[nH]1` (stereo unspecified) [BOPINDOLOL], the IC50 (cells) was > 33.3 µM (inactive) and the IC50 [22] was 14.6 µM (inactive).
